Measured values: patent US11833204B2, “Visible light-activatable nanoparticles for cancer immunotherapy and use thereof” (KOREA INSTITUTE OF SCIENCE AND TECHNOLOGY, priority 2021, dated 2023)

Assays:
[1] = Morphological analysis by transmission electron microscopy in saline; type: physicochemical; details: 1 mg in 1 mL physiological saline
Method: The self-assembled nanoparticles (LT-NPs) prepared in Example 1, doxorubicin (DOX), and verteporfin (VPF) were used as samples. 1 mg of each sample was mixed with physiological saline (1 mL). […] The self-assembled nanoparticles (LT-NPs) were mixed with cathepsin B (Cat-B) protease (50 μg/mL). The mixture was allowed to react for 24 h.

[2] = test system: CT26 cells; assay: Immunogenic cell death: extracellular ATP release; type: cell-based; details: CT26, 5 μM, 24 h, +L/−L
Method: (§1) First, CT26 cells were plated in 35 mm cell culture dishes at a density of 1×10^5 cells/dish and doxorubicin (DOX) (5 μM), verteporfin (VPF) (5 μM) or the self-assembled nanoparticles (LT-NPs) (5 μM) were added to each dish. After 24-h culture, one half was exposed by irradiation with visible light using a 671 nm laser at 40 mW for 250 sec (+L) and the other half was not irradiated with visible light for comparison (−L). The immunogenic cell death of the self-assembled nanoparticles (LT-NPs) was evaluated using the cells and the cell culture media.
ATP was analyzed using a commercially available ATP assay kit (Beyotime Biotechnology) according to the manufacturer's protocol.

[3] = test system: CT26 cells; assay: Apoptosis and necrosis of CT26 cells (Annexin V/PI flow cytometry); type: cell-based; details: CT26, visible light
Method: The degrees of apoptosis and necrosis of cancer cells were quantitatively analyzed to accurately evaluate the anticancer effect of the self-assembled nanoparticles (LT-NPs). First, CT26 cells treated with doxorubicin (DOX), verteporfin (VPF), a mixture of doxorubicin and verteporfin (VPF+DOX) or the self-assembled nanoparticles (LT-NPs) and a laser were prepared as above and treated with 5 μg of Annexin V-FITC and 10 μg of PI solution for 10 min. Then, cells were cultured with a cell fixative for 10 min and further cultured with DAPI for 20 min. The degrees of apoptosis and necrosis were quantitatively analyzed using a flow cytometer (BD FACSVerse, BD bioscience, USA).

[4] = test system: CT26 cells; assay: Immunogenic cell death: calreticulin expression; type: cell-based; details: CT26, 5 μM, 24 h, +L/−L
Method: as §1
Cells were stained with APC-conjugated CRT antibody for 12 h and observed with a confocal fluorescence microscope.

[5] = test system: CT26 cells; assay: Immunogenic cell death: extracellular HSP70 and HMGB1 (Western blotting); type: cell-based; details: CT26, 5 μM, 24 h, +L/−L
Method: as §1
Before staining the cells with APC-conjugated CRT antibody, culture media were separated from the cells and the extracellular expression levels of HMGB1 and HSP70 were analyzed by Western blotting.
Each cell culture medium was treated with RIPA buffer (Cell Signaling Technology) at 4° C. for 30 min and the protein amount of the lysate was analyzed using a Pierce BCA protein assay kit (Thermo Fisher Scientific) according to the manufacturer's protocol. After SDS-PAGE, proteins were transferred to a PVDF membrane (Bio-Rad), which was then treated with Tris-buffered saline (TBS-T) containing 5% skim milk and 0.1% Tween-20. The membrane was incubated with primary antibodies at 4° C. overnight. HSP70 and HMGB1 antibodies were used as the primary antibodies. The membrane was washed with TBS-T and incubated with a secondary antibody at room temperature for 1 h. The membrane was washed with TBS-T, treated with EZ-Western Lumi Pico or Femto reagent (DoGen), and analyzed using Fusion-Solo software (Vilber) according to the manufacturer's protocol to determine band intensities.

| Compound | morphology in physiological saline (TEM) [1] | ATP release [2] | degree of apoptosis (and necrosis) [3] | calreticulin expression [4] | HMGB-1 release [5] | HSP70 release [5] | proportions of early apoptosis, late apoptosis and necrosis [3] |
| --- | --- | --- | --- | --- | --- | --- | --- |
| COc1cccc2c1C(=O)c1c(O)c3c(c(O)c1C2=O)C[C@@](O)(C(=O)CO)C[C@@H]3O[C@H]1C[C@H](N)[C@H](O)[C@H](C)O1 [doxorubicin] | aggregated | lowest | very little apoptosis | lowest | lowest | lowest |  |
| verteporfin | aggregated | relatively increased | considerable apoptosis and necrosis | relatively increased | relatively increased | relatively increased | increase the proportion of late apoptosis |
